# Assay results from the METLIN SMRT retention time set (Domingo-Almenara et al. 2019).
# Assay: gradient 5% acetonitrile 3 min, to 50% in 2 min, to 85% in 15 min, held 3 min, 100 µL/min
# Conditions: column: Zorbax Extend-C18 2.1 x 50 mm; eluents: water / acetonitrile, 0.1% formic acid
# How it was run: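 The system's dead and dwell volumes were 40 μL and 900 μL, with a Zorbax Extend-C18 column (2.1 × 50 mm, 1.8 μm) run at 100 μL/min in water and acetonitrile containing 0.1% formic acid each. Pure standards were analyzed in mixtures of ~100 molecules by HPLC–quadrupole time-of-flight mass spectrometry in positive and negative ionization mode. Retention time was assigned from computationally picked, manually inspected adduct peaks.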
row,Compound,RP-LC retention time [s]
1,Cc1ccc(NC(=O)Nc2ccc3nc(N4CCN(C)CC4)cc(C)c3c2)cc1Cl,640
2,COc1ccc(N2CCN(c3cc(SCC(=O)Nc4cccc(Cl)c4)ncn3)CC2)cc1,1030
3,CCOc1ccc(-c2[nH]ncc2CN)cc1,575
4,Cn1c(=O)n(C)c2cc(CNc3ccc(C(=O)O)cc3)ccc21,687
5,Cc1cc(C(=O)NC(C)C2CC3CCC2C3)c2c(C)noc2n1 (centres undefined),939
6,Cn1cc2c(N3CCSCC3)nc(C(=O)NCc3ccc(N4CCCC4)cc3)nc2n1,699
7,Cc1ccc(-n2cc3c(N4CCCC(C(=O)NCc5cccc(C(F)(F)F)c5)C4)ncnc3n2)cc1 (centres undefined),772
8,COCCNC(=O)c1cc(-c2ccccn2)nc2ccccc12,650
9,COc1ccc(-c2nnc(SCc3cccc(C(F)(F)F)c3)o2)cc1OC,992
10,COc1ccc2c(c1)C1(CCN(S(=O)(=O)c3ccc(F)c(F)c3)C1)C(=O)N2C (centres undefined),964
11,CCC1CN2C=NC(N3CCN(C(=O)NCc4cccc(OC)c4)CC3)=CC2=N1 (centres undefined),614
12,CCN1/C(=C/C(C)=O)Sc2ccc(OC)cc21,845
13,CCS(=O)(=O)c1nc2ccc(NS(=O)(=O)c3ccc(C(C)(C)C)cc3)cc2s1,1040
14,Cc1ccc2c(c1)N(S(C)(=O)=O)CCC(C(=O)Nc1ccc(F)cc1)O2 (centres undefined),930
15,CN(C)C(=O)c1ccc2c(c1)N(CC(=O)N1CCN(C(=O)c3ccco3)CC1)C(=O)C1CCCCN21 (centres undefined),667
16,CCc1noc(-c2ccc(-n3cnc(C(=O)NC(C)c4ccc(F)cc4)c3)nc2)n1 (centres undefined),1000
17,Cc1cc(C)cc(NC(=O)C2CCN(S(C)(=O)=O)c3ccccc3O2)c1 (centres undefined),976
18,COCCN1C(=O)c2ccccc2C(C(=O)NCCc2ccccc2)C12CCCC2 (centres undefined),827
19,c1cnn(-c2cc(N3CCCC3)ncn2)c1,678
20,CCCN1CCN(c2cc(C(=O)O)c3cc(NC(=O)c4ccccc4F)ccc3n2)CC1,601
21,O=C(NCCN1CCOCC1)c1cccc(Nc2c(-c3ccccc3)nc3cnccn23)c1,589

row,Compound,RP-LC retention time [s]
1,CCCCCNC(=O)c1ccc2c(c1)CCCN2S(C)(=O)=O,846
2,CC(C)Cn1cc(CCNC(=O)Nc2ccc(Br)cc2)c2cccnc21,932
3,CCCNC(=O)N1CCN(Cc2nc3cccnc3n2-c2ccc(F)cc2)CC1,604
4,CCN1C(=O)c2ccccc2Oc2ccc(C(=O)NCc3cccs3)cc21,911
5,COc1ccc(C2C(C(=O)NCc3ccccn3)c3cc(OC)c(OC)cc3C(=O)N2C)cc1OC (centres undefined),595
6,COc1ccccc1CC1C(=O)Nc2ccc(Br)cc21 (centres undefined),976
7,Cc1cccc(S(=O)(=O)N2CCCN(c3ccc(=O)n(-c4ccc(F)cc4)n3)CC2)c1,865
8,CCc1nc(-c2csc(S(=O)(=O)N3CCCC(C(=O)Nc4ccc(C)c(C)c4)C3)c2)no1 (centres undefined),1110
9,COCCOCc1nc(C2CCCN2C(=O)c2sccc2C)no1 (centres undefined),716
10,COCCN1C(=O)CCc2cc(NC(=O)C(C)(C)C)ccc21,707
11,O=C(c1cccnc1N1CCNC(c2ccccc2)C1)N1CCSCC1 (centres undefined),606
12,O=C(COc1ccccc1)N1CCC(CNS(=O)(=O)c2ccc(Cl)s2)CC1,843
13,COc1cc(NC(=O)c2cn(-c3cc(N4CCC(C)CC4)ncn3)cn2)cc(OC)c1,1110
14,COc1ccccc1N1CCN(C(=O)Cn2cnc3onc(C)c3c2=O)CC1,720
15,Cc1cc(NC(=O)c2nc3ccccc3s2)n(C(C)C)n1,806
16,CCCN1C(=O)c2cc(S(=O)(=O)Nc3cccc(F)c3)ccc2Oc2cccnc21,1060
17,Cn1nc(C(=O)N2CC(N(C3CCOCC3)S(C)(=O)=O)C2)c2ccccc21,698
18,CCC(C)NC(=O)c1ccn[nH]1 (centres undefined),593
19,COc1cc(CN2CCC3(CC2)CC(C)(O)CCO3)cc(OC)c1 (centres undefined),561
20,O=C(NCc1ccc(-c2nc(C3CC3)no2)s1)c1ccc(F)cc1F,956
21,Cc1ncoc1C(=O)N1CCC(C2CCN(S(C)(=O)=O)CC2)C1 (centres undefined),642

# Now from value to compound:
row,RP-LC retention time [s],Compound
1,921,Cc1cccc(N2CCN(S(=O)(=O)c3cc4n(c3)CCCN(C(C)C)C4=O)CC2)c1
2,685,O=C(NCCc1ccccc1)C1CCN(c2cc(N3CCCCC3)ncn2)CC1
3,774,CCC(C)C(NC(=O)c1ccc(F)c(F)c1)C(=O)Nc1nc2ccccc2[nH]1 (centres undefined)
4,816,Cc1ccc(CNC(=O)Cn2nc(C)c3nn(-c4ccccc4)c(C)c3c2=O)o1
5,949,COC(=O)c1cc2ccsc2n1CC(=O)Nc1ccc(F)cc1F
6,764,O=C(NCCc1ccccc1)NCCc1ccsc1
7,916,O=C(Cn1cccc(-c2nc(-c3ccc(Cl)cc3)no2)c1=O)Nc1ccc2c(c1)OCO2
8,989,CCc1ccc(OCC(=O)N(Cc2ccc(OC)cc2)C2CCS(=O)(=O)C2)cc1 (centres undefined)
9,1250,CN(C)c1cccc(-c2nc(-c3ccc(S(=O)(=O)N4CCCC4)cc3)no2)c1
10,821,COc1ccc(Oc2cc3c(cc2NS(=O)(=O)c2ccc(OC)c(OC)c2)n(C)c(=O)n3C)cc1
11,801,CCC(=O)N1CCc2cc(N3CC(C(=O)Nc4cccc(F)c4C)CC3=O)ccc21 (centres undefined)
12,929,CCc1nc(-c2ccc(S(=O)(=O)N3CCC(C(=O)NCc4ccc5c(c4)OCO5)CC3)cc2)no1
13,756,Cc1nc(N2CCCC2)c2c(C(=O)Nc3cccc(C)c3C)c(C)oc2n1
14,530,Cc1nnc2n1CCC(N(C)C(=O)c1cc(C3CC3)[nH]n1)CC2 (centres undefined)
15,991,CC(C)c1noc(N2CCC(COc3ccc(-c4ccc(S(C)(=O)=O)cc4)nc3)CC2)n1
16,656,CCS(=O)(=O)N1CCCc2cc(C(=O)NC3CCCCC3)ccc21
17,614,Cc1ccc(S(=O)(=O)Nc2ccc3nc(N4CCN(CCC#N)CC4)cc(C(=O)O)c3c2)cc1C
18,618,COc1ccc(CCNC(=O)C2CCCN(c3ccc(-c4ccco4)nn3)C2)cc1OC (centres undefined)
19,1070,CCSc1nc2ccc(NS(=O)(=O)c3ccc(F)c(F)c3)cc2s1
20,859,COc1ccc(C2CC(=O)N(c3ccc(Cl)cc3)C(=O)C2)cc1OC
21,865,CC(C)NC(=O)N(C1CC1)C1CCOC2(CCN(C(=O)C3(c4ccccc4)CC3)CC2)C1 (centres undefined)
22,1090,Cc1ccc(C)c(N2CCN(c3ccnc(SCC(=O)NCCC4=CCCCC4)n3)CC2)c1
23,821,COc1ccc(-c2nc3ncccn3c2Nc2ccc(C)c(Cl)c2)cc1
24,998,O=C(NCc1ccc2c(c1)OCO2)C1CCCN(c2ncc(-c3ccc(F)cc3)cn2)C1 (centres undefined)

row,RP-LC retention time [s],Compound
1,785,O=C(Cc1csc2nc(-c3ccccc3)cn12)Nc1ccccc1
2,599,Cn1c(CC2CCN(C(=O)C3CC(=O)N(C4CCCCCC4)C3)C2)nc2cccnc21 (centres undefined)
3,774,CCCN(CCC)S(=O)(=O)c1cccc(-c2cn3cccc(C)c3n2)c1
4,688,COc1ccccc1CNC(=O)C1CCCN(c2nnc3cccc(C)n23)C1 (centres undefined)
5,655,Cc1cc(C)c(CN2CCC3(CC2)CC3c2noc(C)n2)c(C)c1 (centres undefined)
6,966,CC1=NS(=O)(=O)N(C)C=C1C(=O)OCCC(C)C
7,830,COC(=O)c1cccc(Nc2c(-c3ccc(F)cc3)nc3cnccn23)c1
8,804,Cc1ccccc1OCc1nc(C2CN(C(=O)NC(C)C)C2)no1
9,682,O=C(CC1CCN(C(=O)c2ccc3oc(-c4ccccc4)nc3c2)CC1)N1CCOCC1
10,590,CCN(CC)CCn1c(C)c(C)c2c1ncn1nc(-c3cccnc3)nc21
11,777,COc1cc(/C=C2\SC(=O)N(CC(=O)Nc3nccs3)C2=O)cc(OC)c1OC
12,569,O=C(O)c1cnc(N2CCOCC2)nc1-c1cccnc1
13,664,COc1ccc(CNC(=O)C2CCN(c3cnc4nccnc4c3)CC2)cc1
14,952,COc1cccc(-n2c(=O)c3sccc3n(Cc3nc(-c4ccc(F)cc4)no3)c2=O)c1
15,662,Cc1nc(-c2noc(-c3cccnc3)n2)cn1CC(=O)NCc1cccs1
16,736,CCCN(C)c1nccn2c(=O)n(CC(=O)Nc3ccc(C)cc3Cl)nc12
17,730,CCc1noc(-c2cccnc2N2CCCN(Cc3ccc(Br)cc3)CC2)n1
18,599,CC12CC(NC(=O)N1c1ccc(C(=O)N3CCN(c4ccccn4)CC3)cc1)c1ccccc1O2 (centres undefined)
19,586,COC(=O)c1cnc2nc(C)ccc2c1Nc1ccc(S(N)(=O)=O)cc1
20,676,Cc1nn2c(CNC(=O)C(C)Oc3cccc(Cl)c3)c(C)nc2s1 (centres undefined)
21,703,O=C(NCCc1csc(C2CCN(C(=O)C3CCC3)CC2)n1)C1CCC1
22,622,Cc1cccc(OCC(=O)NC2CCN(Cc3c(C)noc3C)CC2)c1
23,604,Cc1cc(C)n(CC(=O)N2CCN(c3ccccc3O)CC2)n1
